Experimental data published in US20230295293A1, “BINDING MOLECULES AGAINST FRa” (AstraZeneca AB, priority 2022, published 2023).

Assays:
Type in all cases: in vivo, mouse
[1] = tested on: OVO857_CIS ("OVO0875") ovarian PDX; assay: OVO857_CIS ovarian PDX model; details: for Tumor growth inhibition (TGI %): OVO857 PDX; for Mean Tumor volume (mm^3) ± SEM / TGI (%): OVO875 ovarian cancer PDX
Description: (§1) In-house in vivo patient derived xenograft (PDX) efficacy studies were conducted using 2 different ovarian PDX models, OVO857_CIS (“OVO0875”) and CTG3226. 6-8-week-old female NSG (NOD-SCID IL2Rgamma^null) as seed mice were implanted subcutaneously with tumor tissue fragments. When sufficient seed animals reached 1000-1500 mm^3, tumors were harvested, and fragments were implanted into study animals. When tumor volume reached approximately 150-250 mm^3, mice were randomly assigned into different groups (n=3 mice per group). One group received no treatment. Four groups were administered intravenously 10, 5, 2.5 and 1.25 mg/kg AB1370049-SG3932 DAR8 respectively. Two groups were administered intravenously 5 and 2.5 mg/kg FRα-DM4 ADC (“biosimilar to mirvetuximab soravtansine”, with a DAR of about 3) respectively. All dosed animals received drug intravenously as a single dose at 10 ml/kg, on day 39 for OVO857_CIS and day 46 for CTG3226 PDX models.
(§2) Tumor volumes were measured by digital caliper and the volumes of tumors were calculated using the following formula: tumor volume=[length (mm)×width (mm)^2×0.52, where the length and width are the longest and shortest diameters of the tumor, respectively. Body weights were measured twice weekly to assess tolerability of the treatments.
(§3) The growth of tumors in each experimental group was expressed as the mean tumor volume (mm^3)±SEM of the number of animals used.
(§4) Tumor growth inhibition (TGI) was calculated by comparing each treatment group to the untreated control group. Percentage inhibition was calculated from the group means using the following formula: […]
(§5) Where C is mean tumor volume of untreated control group and T is mean tumor volume of treated groups.

CTG3226 ovarian PDX = CTG3226 ovarian PDX model; details: for Tumor growth inhibition (TGI %): CTG3226 PDX; for Mean Tumor volume (mm^3) ± SEM / TGI (%): CTG3226 ovarian cancer PDX
Description: as §1, §2, §3, §4, §5

[2] = tested on: FRα-DM4-resistant OVCAR-3 tumors; assay: FRα-DM4-resistant OVCAR3 xenograft model; details: FRα-DM4 resistant OVCAR3 tumors re-implanted in new host mice; two doses (Q2W) of 5 mg/kg
Description: To develop the OVCAR3 xenograft model, 10×10^6 cells/mouse in 50% Matrigel were inoculated subcutaneously into female 6-8-week-old female NSG (NOD-SCID IL2Rgamma^null). When tumour volume reached within the range of 200-600 mm^3, mice were dosed intravenously with FRα-DM4 ADC (“biosimilar to mirvetuximab soravtansine”, with a DAR of about 3) at 5 mg/kg, once every 2 weeks (Q2W) continuously until tumours relapsed and began to grow in size again. Among mice relapsed after 8 rounds of Q2W dosing, 4 mice were selected and re-challenged with AB1370049-SG3932 DAR8 intravenously at 5 mg/kg Q2W, receiving 2 rounds of AB1370049-SG3932 DAR8 treatment.
Separately, relapsed tumor from an additional mouse was excised and re-implanted subcutaneously into female 6-8-week-old female NSG (NOD-SCID IL2Rgamma^null) mice. […]
as §2, with “(mm)× width” for “(mm)×width”
as §3

With “FRα-DM4 ADC: "biosimilar to mirvetuximab soravtansine", with a DAR of about 3” the “Tumor growth inhibition (TGI %)” value ([1]; single iv dose 2.5 mg/kg) was 2%, the “Tumor growth inhibition (TGI %)” value ([1]; single iv dose 5 mg/kg) was 24% and the “Mean Tumor volume (mm^3) ± SEM” value ([1]; single iv dose 2.5 mg/kg) was 1882.00 ± 199.43 mm^3. For the same substance, the “TGI (%)” value ([1]; single iv dose 2.5 mg/kg) was 2.40%, the “Mean Tumor volume (mm^3) ± SEM” value ([1]; single iv dose 5 mg/kg) was 1457.15 ± 250.01 mm^3 and the “TGI (%)” value ([1]; single iv dose 5 mg/kg) was 24.43%. For the same substance, the “Tumor growth inhibition (TGI %)” value (CTG3226 ovarian PDX; single iv dose 2.5 mg/kg) was “no activity”, the “Tumor growth inhibition (TGI %)” value (CTG3226 ovarian PDX; single iv dose 5 mg/kg) was 76.5% and the “Mean Tumor volume (mm^3) ± SEM” value (CTG3226 ovarian PDX; single iv dose 2.5 mg/kg) was 1127.58 ± 481.10 mm^3. For the same substance, the “TGI (%)” value (CTG3226 ovarian PDX; single iv dose 2.5 mg/kg) was −16.66%, the “Mean Tumor volume (mm^3) ± SEM” value (CTG3226 ovarian PDX; single iv dose 5 mg/kg) was 226.86 ± 46.03 mm^3 and the “TGI (%)” value (CTG3226 ovarian PDX; single iv dose 5 mg/kg) was 76.53%. The TGI (%) [2] was “still resistant to the treatment”.
